Target: human DGAT2 (hDGAT2) (Homo sapiens (Human), UniProt Q96PD7)
Assay: DGAT2 Enzymatic Activity Assay
Type: biochemical
Details: hDGAT2 Sf-9 membrane prep; 13C18-triolein product by LC/MS/MS; 25 μM diolein, 5 μM 13C oleoyl-CoA
Procedure: Sf-9 insect cells were maintained in Grace's insect cell culture medium with 10% heated-inactivated fetal bovine serum, 1% Pluronic F-68 and 0.14 μg/ml Kanamycine sulfate at 27° C. in a shaker incubator. After infection with untagged baculovirus expressing human DGAT2 (hDGAT2) at multiplicity of infection (MOI) 3 for 48 hours, cells were harvested. Cell pellets were suspended in buffer containing 10 mM Tris-HCl pH 7.5, 1 mM EDTA, 250 mM sucrose and Complete Protease Inhibitor Cocktail (Sigma Aldrich), and sonicated on ice. Cell debris were removed by centrifugation at 2000×g for 15 minutes. Membrane fractions were isolated by ultracentrifugation (100,000×g), resuspended in the same buffer, and frozen (−80° C.) for later use. The protein concentration was determined with the Pierce™ BCA Protein Assay Kit (Thermo Fisher Scientific).
LC/MS/MS analyses were performed using Thermal Fisher's LX4-TSQ Vantage system. This system consists of an Agilent binary high-performance liquid chromatography (HPLC) pump and a TSQ Vantage triple quadrupole MS/MS instrument. For each sample, 2 μL samples from the top organic layer of in-plate liquid-liquid extraction were injected onto a Thermo Betabasic C4 column (2.1 mm×20 mm, 5 μm particle size). The samples were then eluted using the following conditions; mobile phase: Isopropanol: acetonitrile/10 mM ammonium formate=50/35/15 (v/v/v), flow rate: 0.8 mL/min, temperature: 25° C. Data was acquired in positive mode using a heated electrospray ionization (HESI) interface. […] The peak area was integrated by Xcalibur Quan software. The ratio between the ^13C18triolein generated in the reaction and spiked in internal standard ^13C21-triolein was used to generate percentage inhibition and IC50 values. Compound percentage inhibition was calculated by the following formula: Inhibition %=1−[(compound response−low control)/(high control−low control)]×100%.
DGAT2 activity was determined by measuring the amount of enzymatic product ^13C18-triolein (^13C-1,2,3-Tri(cis-9-octadecenoyl)glycerol) using the membrane prep mentioned above. The assay was carried out in ABgene 384-well assay plates in a final volume of 25 μL at rt.

human DGAT2 (hDGAT2), sequence (Q96PD7 whole entry): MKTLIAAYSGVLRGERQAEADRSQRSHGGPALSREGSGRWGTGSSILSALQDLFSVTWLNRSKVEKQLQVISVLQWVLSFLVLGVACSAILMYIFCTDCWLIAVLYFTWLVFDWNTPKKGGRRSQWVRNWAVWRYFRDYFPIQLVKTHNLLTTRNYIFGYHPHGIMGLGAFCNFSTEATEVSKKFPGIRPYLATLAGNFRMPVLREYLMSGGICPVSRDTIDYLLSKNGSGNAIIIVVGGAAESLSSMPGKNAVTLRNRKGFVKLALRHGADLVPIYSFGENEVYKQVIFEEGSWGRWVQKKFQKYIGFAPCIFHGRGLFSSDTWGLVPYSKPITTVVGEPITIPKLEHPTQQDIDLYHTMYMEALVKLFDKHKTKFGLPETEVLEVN

IC50 [nM] | Compound
230 | CC(n1nc(-c2cccc(OC(F)F)c2)c2c1C[C@H](C(=O)NC1(C)CCS(=O)(=O)CC1)CC2)C(C)(C)O (single isomer, unassigned) [Example 111b]
2740 | C[C@]1(NC(=O)[C@@H]2CCc3c(-c4cccc(OC(F)F)c4)nn(C(=O)c4ccccc4)c3C2)CCS(=O)(=O)C1 [Example 76, (R)-1-benzoyl-3-(3-(difluoromethoxy)phenyl)-N-((S)-3-methyl-1,1-dioxidotetrahydrothiophen-3-yl)-4,5,6,7-tetrahydro-1H-indazole-6-carboxamide]
542 | C[C@]1(NC(=O)C2CCc3c(-c4cncc(OC(F)F)c4)nn(-c4nnc(C5CC5)s4)c3C2)CCS(=O)(=O)C1 (stereo partly drawn) [Example 5, 1-(5-cyclopropyl-1,3,4-thiadiazol-2-yl)-3-(5-(difluoromethoxy)pyridin-3-yl)-N-((S)-3-methyl-1,1-dioxidotetrahydrothiophen-3-yl)-4,5,6,7-tetrahydro-1H-indazole-6-carboxamide]
4.9 | C[C@]1(NC(=O)[C@@H]2CCc3c(-c4cccc(OC(F)F)c4)nn(-c4ccc(F)cn4)c3C2)CCS(=O)(=O)C1 [Example 3, (R)-3-(3-(difluoromethoxy)phenyl)-1-(5-fluoropyridin-2-yl)-N-((S)-3-methyl-1,1-dioxidotetrahydrothiophen-3-yl)-4,5,6,7-tetrahydro-1H-indazole-6-carboxamide]
29.1 | CC(C)n1nc(-c2cccc(OC3CC3)c2)c2c1C[C@H](C(=O)NC1(C)CCS(=O)(=O)CC1)CC2 [Example 32, (R)-3-(3-cyclopropoxyphenyl)-1-isopropyl-N-(4-methyl-1,1-dioxidotetrahydro-2H-thiopyran-4-yl)-4,5,6,7-tetrahydro-1H-indazole-6-carboxamide]
> 10000 | C[C@]1(NC(=O)[C@@H]2Cc3c(c(-c4cccc(OC(F)F)c4)nn3C3CCOCC3)C(F)(F)C2)CCS(=O)(=O)C1 (single isomer, unassigned) [Example 117a]
2910 | C[C@]1(NC(=O)[C@@H]2CCc3c(-c4cccc(OC(F)F)c4)nn(C(=O)C4CC4)c3C2)CCS(=O)(=O)C1 [Example 74, (R)-1-(cyclopropanecarbonyl)-3-(3-(difluoromethoxy)phenyl)-N-((S)-3-methyl-1,1-dioxidotetrahydrothiophen-3-yl)-4,5,6,7-tetrahydro-1H-indazole-6-carboxamide]
5.1 | CC1(NC(=O)[C@@H]2CCc3c(-c4cccc(OC(F)F)c4)nn(-c4ccc(F)cn4)c3C2)CS(=O)(=O)C1 [Example 4, (R)-3-(3-(difluoromethoxy)phenyl)-1-(5-fluoropyridin-2-yl)-N-(3-methyl-1,1-dioxidothietan-3-yl)-4,5,6,7-tetrahydro-1H-indazole-6-carboxamide]

Continued, compound first:

Compound | IC50 [nM]
CC(C)n1nc(-c2cc(OC(F)(F)F)cnc2Cl)c2c1C[C@H](C(=O)NC1(C)CS(=O)(=O)C1)CC2 [Example 88, (R)-3-(2-chloro-5-(trifluoromethoxy)pyridin-3-yl)-1-isopropyl-N-(3-methyl-1,1-dioxidothietan-3-yl)-4,5,6,7-tetrahydro-1H-indazole-6-carboxamide] | 275
CC(C)Oc1cc(-c2nn(C(C)C)c3c2CC[C@@H](C(=O)NC2(C)CCS(=O)(=O)CC2)C3)c(F)cn1 [Example 38, (R)-3-(5-fluoro-2-isopropoxypyridin-4-yl)-1-isopropyl-N-(4-methyl-1,1-dioxidotetrahydro-2H-thiopyran-4-yl)-4,5,6,7-tetrahydro-1H-indazole-6-carboxamide] | 74.3
CC(n1nc(-c2cc(OCC(F)(F)F)ncc2F)c2c1C[C@H](C(=O)NC1(C#N)CCS(=O)(=O)CC1)CC2)C(C)(C)O (single isomer, unassigned) [Example 113a] | 27.8
O=C(N[C@@H]1CCC[C@H]1N1CCOCC1)C1CCc2c(-c3cccc(OC(F)F)c3)nn(-c3ccc(F)cn3)c2C1 (stereo partly drawn) [Example 16, 3-(3-(difluoromethoxy)phenyl)-1-(5-fluoropyridin-2-yl)-N-((1R,2R)-2-morpholinocyclopentyl)-4,5,6,7-tetrahydro-1H-indazole-6-carboxamide] | 66.9
CC(C)n1nc(-c2cccc(OC(F)(F)F)c2)c2c1C[C@H](C(=O)NC1(C)CCS(=O)(=O)CC1)CC2 [Example 55, (R)-1-isopropyl-N-(4-methyl-1,1-dioxidotetrahydro-2H-thiopyran-4-yl)-3-(3-(trifluoromethoxy)phenyl)-4,5,6,7-tetrahydro-1H-indazole-6-carboxamide] | 86.6
CC(C)n1nc(-c2cccc(S(C)(=O)=O)c2)c2c1C[C@H](C(=O)NC1(C)CS(=O)(=O)C1)CC2 [Example 98, (R)-1-isopropyl-N-(3-methyl-1,1-dioxidothietan-3-yl)-3-(3-(methylsulfonyl)phenyl)-4,5,6,7-tetrahydro-1H-indazole-6-carboxamide] | > 10000
CNS(=O)(=O)CCNC(=O)[C@@H]1CCc2c(-c3cccc(OC(F)F)c3)nn(C(C)C)c2C1 [Example 71, (R)-3-(3-(difluoromethoxy)phenyl)-1-isopropyl-N-(2-(N-methylsulfamoyl)ethyl)-4,5,6,7-tetrahydro-1H-indazole-6-carboxamide] | > 10000
CC(C)n1nc(-c2cc(OC(F)F)ccc2F)c2c1C[C@H](C(=O)NC1(C)CS(=O)(=O)C1)OC2 [Example 127, (R)-3-(5-(difluoromethoxy)-2-fluorophenyl)-1-isopropyl-N-(3-methyl-1,1-dioxidothietan-3-yl)-1,4,6,7-tetrahydropyrano[4,3-c]pyrazole-6-carboxamide] | 343
CC(n1nc(-c2cc(OCC(F)(F)F)ncc2F)c2c1C[C@H](C(=O)NC1(C#N)CCS(=O)(=O)CC1)CC2)C(C)(C)O (single isomer, unassigned) [Example 113b] | 70.3
CC(C)n1nc(-c2cccc(OC(F)F)c2)c2c1CC(C(=O)NC1(C)CS(=O)(=O)C1)OC2 (single isomer, unassigned) [EX-134a, 3-(3-(difluoromethoxy)phenyl)-1-isopropyl-N-(3-methyl-1,1-dioxidothietan-3-yl)-1,4,6,7-tetrahydropyrano[4,3-c]pyrazole-6-carboxamide] | > 10000
CC(C)NC(=O)N1CCC(C)(NC(=O)[C@@H]2CCc3c(-c4cc(OC(F)F)ccc4F)nn(C(C)C)c3C2)C1 (stereo partly drawn) [Example 60, (6R)-3-(5-(difluoromethoxy)-2-fluorophenyl)-1-isopropyl-N-(1-(isopropylcarbamoyl)-3-methylpyrrolidin-3-yl)-4,5,6,7-tetrahydro-1H-indazole-6-carboxamide] | 29.2
CC(C)n1nc(-c2cc(OCC(F)(F)F)ncc2F)c2c1C[C@H](C(=O)NC1(C)CCS(=O)(=O)CC1)CC2 [Example 45, (R)-3-(5-fluoro-2-(2,2,2-trifluoroethoxy)pyridin-4-yl)-1-isopropyl-N-(4-methyl-1,1-dioxidotetrahydro-2H-thiopyran-4-yl)-4,5,6,7-tetrahydro-1H-indazole-6-carboxamide] | 18.4
[2H]C([2H])([2H])C([2H])(n1nc(-c2cc(OC(F)F)ccc2F)c2c1C[C@H](C(=O)NC1(C)CCS(=O)(=O)CC1)CC2)C([2H])([2H])[2H] [Example 46, (R)-3-(5-(difluoromethoxy)-2-fluorophenyl)-N-(4-methyl-1,1-dioxidotetrahydro-2H-thiopyran-4-yl)-1-(propan-2-yl-d7)-4,5,6,7-tetrahydro-1H-indazole-6-carboxamide] | 37.9
CCNS(=O)(=O)c1cccc(-c2nn(C(C)C)c3c2CC[C@@H](C(=O)NC2(C)CS(=O)(=O)C2)C3)c1 [Example 99, (R)-3-(3-(N-ethylsulfamoyl)phenyl)-1-isopropyl-N-(3-methyl-1,1-dioxidothietan-3-yl)-4,5,6,7-tetrahydro-1H-indazole-6-carboxamide] | > 10000
[2H]C([2H])([2H])C([2H])(n1nc(-c2cc(OCC)ncc2F)c2c1C[C@H](C(=O)NC1(C)CCS(=O)(=O)CC1)CC2)C([2H])([2H])[2H] [Example 47, (R)-3-(2-ethoxy-5-fluoropyridin-4-yl)-N-(4-methyl-1,1-dioxidotetrahydro-2H-thiopyran-4-yl)-1-(propan-2-yl-d7)-4,5,6,7-tetrahydro-1H-indazole-6-carboxamide] | 65.9
CC1(NC(=O)[C@@H]2CCc3c(-c4cc(OC(F)F)ccc4F)nn(C4CCCC4O)c3C2)CS(=O)(=O)C1 (single isomer, unassigned) [Example 114a] | 44.5
CC(C)n1nc(-c2cc(OC3CC3)ncc2F)c2c1C[C@H](C(=O)NC1(C)CCS(=O)(=O)CC1)CC2 [Example 37, (R)-3-(2-cyclopropoxy-5-fluoropyridin-4-yl)-1-isopropyl-N-(4-methyl-1,1-dioxidotetrahydro-2H-thiopyran-4-yl)-4,5,6,7-tetrahydro-1H-indazole-6-carboxamide] | 93.2

— patent US20240140938A1, “PREPARATION OF TETRAHYDROINDAZOLE DERIVATIVES AS NOVEL DIACYLGLYCERIDE O-ACYLTRANSFERASE 2 INHIBITORS” (MERCK SHARP & DOHME LLC, priority 2020, published 2024)
